Source: the kinase profiling compilation of Christmann-Franck et al. (2016)

Experiments:
Assay in all cases: radiometric filter-binding kinase assay
[1] = target: MAPK1 (human) (UniProt P28482)
[2] = target: MAP3K1 (human) (UniProt Q13233)
[3] = target: MINK1 (human) (UniProt Q8N4C8)
[4] = target: PRKCA (human) (UniProt P17252)
[5] = target: AURKB (human) (UniProt Q96GD4)
[6] = target: YES1 (human) (UniProt P07947)
[7] = target: CHEK2 (human) (UniProt O96017)
[8] = target: MARK2 (human) (UniProt Q7KZI7)
[9] = target: MAPK9 (human) (UniProt P45984)
[10] = target: STK11 CAB39 STRADA (human) (UniProt Q9Y376+Q7RTN6+Q15831)
[11] = target: MKNK2 (human) (UniProt Q9HBH9)
[12] = target: SRC (human) (UniProt P12931)
SRC (human), sequence (P12931 whole entry, looked up): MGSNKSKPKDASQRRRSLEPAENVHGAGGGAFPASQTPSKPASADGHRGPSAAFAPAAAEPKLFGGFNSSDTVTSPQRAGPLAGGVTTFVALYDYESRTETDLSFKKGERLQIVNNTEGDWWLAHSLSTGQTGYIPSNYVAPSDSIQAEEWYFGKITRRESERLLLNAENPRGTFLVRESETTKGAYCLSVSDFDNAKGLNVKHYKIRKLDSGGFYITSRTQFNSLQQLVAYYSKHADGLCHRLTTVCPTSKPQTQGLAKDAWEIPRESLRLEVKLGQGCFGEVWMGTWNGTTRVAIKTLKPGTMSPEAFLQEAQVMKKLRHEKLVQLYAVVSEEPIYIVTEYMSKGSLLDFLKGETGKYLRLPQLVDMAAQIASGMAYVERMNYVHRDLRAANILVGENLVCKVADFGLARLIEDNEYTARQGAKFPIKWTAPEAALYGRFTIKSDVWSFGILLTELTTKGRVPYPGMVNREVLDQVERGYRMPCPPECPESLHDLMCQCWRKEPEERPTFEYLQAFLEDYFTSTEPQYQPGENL

[13] = target: NTRK1 (human) (UniProt P04629)
NTRK1 (human), sequence (P04629 whole entry, looked up): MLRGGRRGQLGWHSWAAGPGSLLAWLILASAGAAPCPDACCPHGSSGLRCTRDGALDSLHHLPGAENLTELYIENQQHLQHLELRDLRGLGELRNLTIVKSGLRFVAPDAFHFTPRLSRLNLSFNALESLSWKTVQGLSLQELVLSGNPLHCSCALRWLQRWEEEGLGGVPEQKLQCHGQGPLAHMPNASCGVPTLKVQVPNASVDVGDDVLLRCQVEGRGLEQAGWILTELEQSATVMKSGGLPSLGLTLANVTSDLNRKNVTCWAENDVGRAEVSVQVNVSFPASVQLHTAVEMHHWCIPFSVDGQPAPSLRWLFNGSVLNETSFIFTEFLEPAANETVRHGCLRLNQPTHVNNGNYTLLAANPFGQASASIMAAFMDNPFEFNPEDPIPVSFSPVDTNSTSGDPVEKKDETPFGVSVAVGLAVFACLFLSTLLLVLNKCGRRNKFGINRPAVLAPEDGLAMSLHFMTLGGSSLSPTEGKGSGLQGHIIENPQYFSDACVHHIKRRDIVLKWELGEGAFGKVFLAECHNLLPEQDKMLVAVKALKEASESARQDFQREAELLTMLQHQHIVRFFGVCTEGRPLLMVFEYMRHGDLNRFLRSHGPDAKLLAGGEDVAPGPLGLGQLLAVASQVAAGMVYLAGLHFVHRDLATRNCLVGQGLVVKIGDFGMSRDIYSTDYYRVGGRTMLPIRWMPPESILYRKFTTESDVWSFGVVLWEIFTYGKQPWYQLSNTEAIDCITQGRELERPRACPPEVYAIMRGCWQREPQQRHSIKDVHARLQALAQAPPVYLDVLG

[14] = target: PKN2 (human) (UniProt Q16513)
[15] = target: MKNK1 (human) (UniProt Q9BUB5)
[16] = target: RPS6KA1 KD1 KD2 (human) (UniProt Q15418)
[17] = target: PRKACA (human) (UniProt P17612)
[18] = target: PHKG1 (human) (UniProt Q16816)
[19] = target: IGF1R (human) (UniProt P08069)
[20] = target: CHEK1 (human) (UniProt O14757)
[21] = target: NEK2 (human) (UniProt P51955)
[22] = target: MAPK3 (human) (UniProt P27361)
[23] = target: GCK (human) (UniProt Q12851)
[24] = target: STK3 (human) (UniProt Q13188)
STK3 (human), sequence (Q13188 whole entry, looked up): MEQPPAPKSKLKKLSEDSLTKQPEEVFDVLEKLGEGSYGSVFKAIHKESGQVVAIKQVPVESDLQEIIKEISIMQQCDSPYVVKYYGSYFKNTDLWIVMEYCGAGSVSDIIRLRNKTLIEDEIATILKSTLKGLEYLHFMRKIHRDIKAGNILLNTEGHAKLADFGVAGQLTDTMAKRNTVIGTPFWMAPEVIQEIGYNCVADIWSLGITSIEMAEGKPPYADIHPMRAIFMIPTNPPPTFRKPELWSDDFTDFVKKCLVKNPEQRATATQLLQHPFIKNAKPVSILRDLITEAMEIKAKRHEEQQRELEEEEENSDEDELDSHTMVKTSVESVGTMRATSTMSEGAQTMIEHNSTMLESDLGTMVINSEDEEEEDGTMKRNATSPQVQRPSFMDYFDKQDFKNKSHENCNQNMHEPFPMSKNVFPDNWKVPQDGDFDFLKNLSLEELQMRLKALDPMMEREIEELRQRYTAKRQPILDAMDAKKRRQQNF

[25] = target: PIM2 (human) (UniProt Q9P1W9)
[26] = target: IKBKB (human) (UniProt O14920)
[27] = target: MAPKAPK2 (human) (UniProt P49137)
MAPKAPK2 (human), sequence (P49137 whole entry, looked up): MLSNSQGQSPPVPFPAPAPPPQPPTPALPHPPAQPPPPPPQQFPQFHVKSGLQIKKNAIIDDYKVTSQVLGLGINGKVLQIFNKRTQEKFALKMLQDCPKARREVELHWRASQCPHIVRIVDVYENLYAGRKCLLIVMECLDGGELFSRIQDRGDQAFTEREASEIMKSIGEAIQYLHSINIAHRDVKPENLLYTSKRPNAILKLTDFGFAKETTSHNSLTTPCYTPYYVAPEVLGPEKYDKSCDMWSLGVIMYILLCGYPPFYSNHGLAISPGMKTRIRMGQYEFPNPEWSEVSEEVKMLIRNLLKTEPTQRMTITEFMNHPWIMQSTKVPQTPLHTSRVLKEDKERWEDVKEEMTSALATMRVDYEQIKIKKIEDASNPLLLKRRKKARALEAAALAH

[28] = target: CAMKK2 (human) (UniProt Q96RR4)
[29] = target: MAPK15 (human) (UniProt Q8TD08)
[30] = target: EPHB4 (human) (UniProt P54760)
[31] = system: AKT2 (human), P31751 [S474D]
[32] = target: MAPK10 (human) (UniProt P53779)
MAPK10 (human), sequence (P53779 whole entry, looked up): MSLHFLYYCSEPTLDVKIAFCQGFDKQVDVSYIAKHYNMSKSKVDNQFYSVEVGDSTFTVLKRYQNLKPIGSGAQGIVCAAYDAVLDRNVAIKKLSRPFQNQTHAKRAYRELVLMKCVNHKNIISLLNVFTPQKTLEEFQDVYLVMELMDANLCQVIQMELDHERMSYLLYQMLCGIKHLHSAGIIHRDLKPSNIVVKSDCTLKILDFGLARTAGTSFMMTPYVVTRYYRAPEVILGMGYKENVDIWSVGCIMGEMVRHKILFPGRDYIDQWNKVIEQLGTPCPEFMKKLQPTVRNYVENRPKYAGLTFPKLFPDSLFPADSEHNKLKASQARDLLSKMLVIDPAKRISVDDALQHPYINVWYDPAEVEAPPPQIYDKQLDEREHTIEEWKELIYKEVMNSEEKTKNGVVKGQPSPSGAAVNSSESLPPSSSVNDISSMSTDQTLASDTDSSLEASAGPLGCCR

[33] = target: MAP3K5 (human) (UniProt Q99683)
[34] = target: MAP2K1 (human) (UniProt Q02750)
[35] = system: PRKAA1 or PRKAA2 (rat); settings: accession and sequence are those of the human protein

MAP3K1 (human), sequence (Q13233 whole entry, looked up): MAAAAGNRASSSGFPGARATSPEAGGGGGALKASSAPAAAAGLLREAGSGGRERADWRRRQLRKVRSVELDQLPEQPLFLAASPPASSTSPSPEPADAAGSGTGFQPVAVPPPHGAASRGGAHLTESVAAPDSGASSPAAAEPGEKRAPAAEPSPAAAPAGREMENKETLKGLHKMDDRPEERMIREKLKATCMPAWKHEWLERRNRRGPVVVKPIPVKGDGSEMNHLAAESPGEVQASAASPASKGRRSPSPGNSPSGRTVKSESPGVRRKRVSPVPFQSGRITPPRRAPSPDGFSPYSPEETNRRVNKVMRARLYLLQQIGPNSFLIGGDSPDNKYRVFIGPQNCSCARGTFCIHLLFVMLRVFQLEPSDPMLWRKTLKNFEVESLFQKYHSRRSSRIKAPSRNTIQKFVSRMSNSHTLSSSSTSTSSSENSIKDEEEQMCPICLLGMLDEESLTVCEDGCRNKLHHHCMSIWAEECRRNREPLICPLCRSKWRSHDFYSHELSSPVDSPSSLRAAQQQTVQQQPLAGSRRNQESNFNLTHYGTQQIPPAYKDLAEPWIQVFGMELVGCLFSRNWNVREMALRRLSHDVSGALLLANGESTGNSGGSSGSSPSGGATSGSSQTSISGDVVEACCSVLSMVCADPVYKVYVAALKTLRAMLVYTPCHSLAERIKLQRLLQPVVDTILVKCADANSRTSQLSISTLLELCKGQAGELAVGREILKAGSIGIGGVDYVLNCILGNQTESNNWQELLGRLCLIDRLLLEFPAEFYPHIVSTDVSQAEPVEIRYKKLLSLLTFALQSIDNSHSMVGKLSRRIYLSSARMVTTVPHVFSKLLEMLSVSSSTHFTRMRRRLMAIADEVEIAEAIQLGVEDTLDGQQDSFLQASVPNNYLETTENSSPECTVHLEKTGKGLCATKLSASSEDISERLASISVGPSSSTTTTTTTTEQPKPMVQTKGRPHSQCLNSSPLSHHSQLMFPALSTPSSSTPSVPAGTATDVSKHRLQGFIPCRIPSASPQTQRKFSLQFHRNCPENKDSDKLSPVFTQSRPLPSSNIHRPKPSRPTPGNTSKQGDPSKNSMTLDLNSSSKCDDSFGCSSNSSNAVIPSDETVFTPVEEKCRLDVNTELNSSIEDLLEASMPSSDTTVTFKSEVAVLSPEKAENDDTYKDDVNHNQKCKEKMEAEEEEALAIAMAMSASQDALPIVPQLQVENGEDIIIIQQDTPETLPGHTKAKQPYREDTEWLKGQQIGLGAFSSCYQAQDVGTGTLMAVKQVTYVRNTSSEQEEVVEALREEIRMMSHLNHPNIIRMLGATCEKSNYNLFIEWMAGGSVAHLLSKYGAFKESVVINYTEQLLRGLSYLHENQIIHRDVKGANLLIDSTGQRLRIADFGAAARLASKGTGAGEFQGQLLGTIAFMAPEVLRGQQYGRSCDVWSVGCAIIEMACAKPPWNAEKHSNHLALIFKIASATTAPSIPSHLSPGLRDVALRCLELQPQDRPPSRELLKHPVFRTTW

SMILES: O=C(N[C@@H](COc1ccc2[nH]c(=O)[nH]c2c1)c1ccccc1)c1cccn(Cc2ccc(F)c(F)c2)c1=O
- residual activity ([1]; compound 0.1 µM): 102%
- residual activity ([1]; compound 1.0 µM): 100%
- residual activity ([1]; compound 10.0 µM): 101%
- residual activity ([2]; compound 0.1 µM): 110%
- residual activity ([2]; compound 1.0 µM): 114%
- residual activity ([2]; compound 10.0 µM): 112%
- residual activity ([3]; compound 0.1 µM): 92%
- residual activity ([3]; compound 1.0 µM): 100%
- residual activity ([3]; compound 10.0 µM): 87%
- residual activity ([4]; compound 0.1 µM): 99%
- residual activity ([4]; compound 1.0 µM): 91%
- residual activity ([4]; compound 10.0 µM): 96%
- residual activity ([5]; compound 0.1 µM): 105%
- residual activity ([5]; compound 1.0 µM): 104%
- residual activity ([5]; compound 10.0 µM): 64%
- residual activity ([6]; compound 0.1 µM): 104%
- residual activity ([6]; compound 1.0 µM): 105%
- residual activity ([6]; compound 10.0 µM): 95%
- residual activity ([7]; compound 0.1 µM): 102%
- residual activity ([7]; compound 1.0 µM): 106%
- residual activity ([7]; compound 10.0 µM): 100%
- residual activity ([8]; compound 0.1 µM): 105%
- residual activity ([8]; compound 1.0 µM): 102%
- residual activity ([8]; compound 10.0 µM): 88%
- residual activity ([9]; compound 0.1 µM): 93%
- residual activity ([9]; compound 1.0 µM): 97%
- residual activity ([9]; compound 10.0 µM): 95%
- residual activity ([10]; compound 0.1 µM): 102%
- residual activity ([10]; compound 1.0 µM): 100%
- residual activity ([10]; compound 10.0 µM): 93%
- residual activity ([11]; compound 0.1 µM): 117%
- residual activity ([11]; compound 10.0 µM): 112%
- residual activity ([12]; compound 0.1 µM): 103%
- residual activity ([12]; compound 1.0 µM): 100%
- residual activity ([12]; compound 10.0 µM): 75%
- residual activity ([13]; compound 0.1 µM): 113%
- residual activity ([13]; compound 1.0 µM): 98%
- residual activity ([13]; compound 10.0 µM): 78%
- residual activity ([14]; compound 0.1 µM): 108%
- residual activity ([14]; compound 1.0 µM): 113%
- residual activity ([14]; compound 10.0 µM): 103%
- residual activity ([15]; compound 0.1 µM): 106%
- residual activity ([15]; compound 1.0 µM): 99%
- residual activity ([15]; compound 10.0 µM): 99%
- residual activity ([16]; compound 0.1 µM): 95%
- residual activity ([16]; compound 1.0 µM): 93%
- residual activity ([16]; compound 10.0 µM): 114%
- residual activity ([17]; compound 0.1 µM): 105%
- residual activity ([17]; compound 1.0 µM): 112%
- residual activity ([17]; compound 10.0 µM): 111%
- residual activity ([18]; compound 0.1 µM): 100%
- residual activity ([18]; compound 1.0 µM): 117%
- residual activity ([19]; compound 0.1 µM): 105%
- residual activity ([19]; compound 1.0 µM): 105%
- residual activity ([19]; compound 10.0 µM): 103%
- residual activity ([20]; compound 0.1 µM): 96%
- residual activity ([20]; compound 1.0 µM): 94%
- residual activity ([20]; compound 10.0 µM): 95%
- residual activity ([21]; compound 0.1 µM): 107%
- residual activity ([21]; compound 1.0 µM): 97%
- residual activity ([21]; compound 10.0 µM): 96%
- residual activity ([22]; compound 0.1 µM): 93%
- residual activity ([22]; compound 1.0 µM): 101%
- residual activity ([22]; compound 10.0 µM): 95%
- residual activity ([23]; compound 0.1 µM): 102%
- residual activity ([23]; compound 1.0 µM): 101%
- residual activity ([23]; compound 10.0 µM): 94%
- residual activity ([24]; compound 0.1 µM): 102%
- residual activity ([24]; compound 1.0 µM): 105%
- residual activity ([24]; compound 10.0 µM): 100%
- residual activity ([25]; compound 0.1 µM): 107%
- residual activity ([25]; compound 1.0 µM): 105%
- residual activity ([25]; compound 10.0 µM): 85%
- residual activity ([26]; compound 0.1 µM): 102%
- residual activity ([26]; compound 1.0 µM): 99%
- residual activity ([26]; compound 10.0 µM): 99%
- residual activity ([27]; compound 0.1 µM): 99%
- residual activity ([27]; compound 1.0 µM): 101%
- residual activity ([27]; compound 10.0 µM): 90%
- residual activity ([28]; compound 1.0 µM): 104%
- residual activity ([28]; compound 10.0 µM): 90%
- residual activity ([29]; compound 0.1 µM): 92%
- residual activity ([29]; compound 1.0 µM): 89%
- residual activity ([29]; compound 10.0 µM): 94%
- residual activity ([30]; compound 1.0 µM): 85%
- residual activity ([30]; compound 10.0 µM): 87%
- residual activity ([31]; compound 0.1 µM): 98%
- residual activity ([31]; compound 1.0 µM): 96%
- residual activity ([31]; compound 10.0 µM): 77%
- residual activity ([32]; compound 0.1 µM): 101%
- residual activity ([32]; compound 1.0 µM): 90%
- residual activity ([32]; compound 10.0 µM): 101%
- residual activity ([33]; compound 0.1 µM): 110%
- residual activity ([33]; compound 1.0 µM): 105%
- residual activity ([33]; compound 10.0 µM): 92%
- residual activity ([34]; compound 0.1 µM): 100%
- residual activity ([34]; compound 10.0 µM): 95%
- residual activity ([35]; compound 0.1 µM): 97%
- residual activity ([35]; compound 1.0 µM): 99%
- residual activity ([35]; compound 10.0 µM): 99%
